Laboratory results: patent US7179825B2, “Retinoic acid mimetic anilides” (Janssen Pharmaceutica N.V., priority 1997, dated 2007)

Tests used:
[1] = tested on: metabolism of retinoic acid in human breast cancer cells; experiment: Inhibition of retinoic acid (RA) metabolism (Example C.1); assay type: cell-based; conditions: MCF-7 human breast cancer cells, 3H-RA as substrate, concentration needed to reduce the amount of metabolites to 50% of the control
Source text: The property to delay the metabolism of retinoic acid can be evidenced in various in vitro and in vivo experiments. A particular in vitro procedure is described in example C.1 and tests the inhibitory activity of the compounds of formula (I) on the metabolism of retinoic acid in human breast cancer cells. The compounds of the present invention were also effective in suppressing induced vaginal keratinization effects in ovariectomized rats as is described in example C.2.
Inhibition of Retinoic Acid (RA) Metabolism
MCF-7 human breast cancer cells were grown as stock cultures according to art-known protocols. One day before the experiment, RA is added to the stock cultures to stimulate RA-metabolism. At the start of the experiment, cell suspensions were incubated in a tissue culture medium containing ^3H-RA as the substrate. Different concentrations of the test compound (dissolved in 1% DMSO) were added to the incubation mixtures, and at the end of the incubation, the unmetabolized RA is separated from its polar metabolites. The fraction containing the polar ^3H-labelled metabolites was collected and counted in a scintillation counter. For each experiment, a control and a blank incubation were run in parallel. Table 22 list the IC50 value (defined as the concentration in M needed to reduce the amount of metabolites to 50% of the control).

Ovariectomized rats = experiment: Vaginal keratinization test on ovariectomized rats (Example C.2); assay type: in vivo; conditions: estradiol undecylate induced keratinization, per os once daily on days 1-3, active dose = 50% of rats show complete suppression
Method in brief: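 Value is the lowest oral dose (mg/kg) at which half of tested rats show complete suppression of estradiol undecylate-induced vaginal keratinization by histology. Ovariectomized rats received 100 μg/100 g estradiol undecylate s.c., then compound or PEG 200 vehicle p.o. daily for three days; sacrifice one day later.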

In the case of `CCC(CC)C(c1ccc(NC(=O)C(O)c2ccc(C)c(C)c2)cc1)n1cncn1` (mixture of isomers) [Compound 11], the IC50 [1] is reported as 2.63 nM and the “LAD (lowest active dose)” value (Ovariectomized rats) is reported as over 2.50 mg/kg.

`CCC(CC)C(c1ccc(NC(=O)C2COc3ccccc3O2)cc1)n1ccnc1` (mixture of isomers) [Compound 23] was tested, and the IC50 [1] was 0.503 nM and the “LAD (lowest active dose)” value (Ovariectomized rats) was 2.50 mg/kg.

For `CCC(CC)C(c1ccc(NC(=O)CC2COc3ccccc3O2)cc1)n1ccnc1` (mixture of isomers) [Compound 26], the IC50 [1] was 0.201 nM and the “LAD (lowest active dose)” value (Ovariectomized rats) was 5.00 mg/kg.

`CCC(CC)C(c1ccc(NC(=O)C2COc3ccccc3C2)cc1)n1ccnc1` (mixture of isomers) [Compound 33] was tested, and the IC50 [1] was 1.01 nM and the “LAD (lowest active dose)” value (Ovariectomized rats) was 5.00 mg/kg.

In the case of `CC(C=Cc1ccccc1)C(=O)Nc1ccc(C(C(C)C)n2ccnc2)cc1` (mixture of isomers) [Compound 165], the IC50 [1] is reported as 10.8 nM and the “LAD (lowest active dose)” value (Ovariectomized rats) is reported as over 20.00 mg/kg.

With `CC(C(=O)Nc1ccc(C(C(C)C)n2ccnc2)cc1)=C(c1ccccc1)c1cccnc1` (mixture of isomers) [Compound 171] the IC50 [1] was 85.8 nM and the “LAD (lowest active dose)” value (Ovariectomized rats) was over 10.00 mg/kg.

In the case of `CC1C(C(=O)Nc2ccc(C(C(C)C)n3ccnc3)cc2)=Cc2ccccc21` (mixture of isomers) [Compound 180], the IC50 [1] is reported as 56.9 nM and the “LAD (lowest active dose)” value (Ovariectomized rats) is reported as over 10.00 mg/kg.

With `CC(C)C(c1ccc(NC(=O)C2CC2C)cc1)n1ccnc1` (mixture of isomers) [Compound 197] the IC50 [1] was 5.61 nM and the “LAD (lowest active dose)” value (Ovariectomized rats) was over 10.00 mg/kg.

`CC(C)C(c1ccc(NC(=O)C2CC2c2ccccc2)cc1)n1ccnc1.O=C(O)C(=O)O` (mixture of isomers) [Compound 204] was tested, and the IC50 [1] was 4.58 nM and the “LAD (lowest active dose)” value (Ovariectomized rats) was over 10.00 mg/kg.

With `CC(C)C(c1ccc(NC(=O)C2COc3ccccc3C2)cc1)n1ccnc1` (mixture of isomers) [Compound 253] the IC50 [1] was 5.55 nM and the “LAD (lowest active dose)” value (Ovariectomized rats) was over 5.00 mg/kg.

In the case of `CC(CC#N)C(c1ccc(NC(=O)Cc2ccc(Cl)cc2)cc1)n1ccnc1` (mixture of isomers) [Compound 371], the IC50 [1] is reported as 3.59 nM and the “LAD (lowest active dose)” value (Ovariectomized rats) is reported as 10.00 mg/kg.

`CCC(C)C(c1ccc(NC(=O)C(C)=Cc2ccccc2)cc1)n1ccnc1` (mixture of isomers) [Compound 480] was tested, and the IC50 [1] was 4.25 nM and the “LAD (lowest active dose)” value (Ovariectomized rats) was 10.00 mg/kg.

In the case of `CCCCC(CC)C(c1ccc(NC(=O)C(C)=Cc2ccccc2)cc1)n1ccnc1` (mixture of isomers) [Compound 493], the IC50 [1] is reported as 8.77 nM and the “LAD (lowest active dose)” value (Ovariectomized rats) is reported as over 2.50 mg/kg.

`O=C(C=C(c1ccccc1)C1CCCCC1)Nc1ccc(C(c2ccc(Cl)cc2)n2ccnc2)cc1` (mixture of isomers) [Compound 514] was tested, and the IC50 [1] was over 1000 nM and the “LAD (lowest active dose)” value (Ovariectomized rats) was over 20.00 mg/kg.

For `CC(C)C(=CC(=O)Nc1ccc(C(c2ccc(Cl)cc2)n2ccnc2)cc1)c1ccccc1` (mixture of isomers) [Compound 515], the IC50 [1] was over 1000 nM and the “LAD (lowest active dose)” value (Ovariectomized rats) was over 20.00 mg/kg.

In the case of `CC(C(=O)Nc1ccc(C(C(C)C)n2ccnc2)cc1)=C(c1ccccc1)c1ccsc1` (mixture of isomers) [Compound 518], the IC50 [1] is reported as over 100 nM and the “LAD (lowest active dose)” value (Ovariectomized rats) is reported as over 10.00 mg/kg.

In the case of `CCCC(=C(C)C(=O)Nc1ccc(C(C(C)C)n2ccnc2)cc1)c1ccccc1` (mixture of isomers) [Compound 519], the IC50 [1] is reported as 3.8 nM and the “LAD (lowest active dose)” value (Ovariectomized rats) is reported as over 10.00 mg/kg.

For `CCC(C)C(c1ccc(NC(=O)Cc2ccc(OC)c(OC)c2)cc1)n1cncn1` (mixture of isomers) [Compound 640], the IC50 [1] was 2.17 nM and the “LAD (lowest active dose)” value (Ovariectomized rats) was over 2.50 mg/kg.

With `CC(C)C(c1ccc(NC(=O)C(c2ccccc2)C2CCCC2)cc1)n1ccnc1` (mixture of isomers) [Compound 659] the IC50 [1] was over 100 nM and the “LAD (lowest active dose)” value (Ovariectomized rats) was over 10.00 mg/kg.

For `CCC(C(=O)Nc1ccc(C(C(C)C)n2ccnc2)cc1)c1ccccc1` (mixture of isomers) [Compound 660], the IC50 [1] was 6.37 nM and the “LAD (lowest active dose)” value (Ovariectomized rats) was over 10.00 mg/kg.

In the case of `CC(C)C(c1ccc(NC(=O)C(c2ccccc2)C2CCCCC2)cc1)n1ccnc1` (mixture of isomers) [Compound 661], the IC50 [1] is reported as 34 nM and the “LAD (lowest active dose)” value (Ovariectomized rats) is reported as over 10.00 mg/kg.

`COC(C(=O)Nc1ccc(C(C(C)C)n2ccnc2)cc1)c1ccccc1` (mixture of isomers) [Compound 670] was tested, and the IC50 [1] was 5.72 nM and the “LAD (lowest active dose)” value (Ovariectomized rats) was over 2.50 mg/kg.

`CCC(CC)C(c1ccc(NC(=O)/C(C)=C/c2ccccc2)cc1)n1cncn1` (racemic) [Compound 2] was tested, and the IC50 [1] was 0.03 nM and the “LAD (lowest active dose)” value (Ovariectomized rats) was 5.00 mg/kg.

With `CCC(CC)C(c1ccc(NC(=O)Cc2ccc3c(c2)OCO3)cc1)n1cncn1` (racemic) [Compound 5] the IC50 [1] was 0.27 nM and the “LAD (lowest active dose)” value (Ovariectomized rats) was over 2.50 mg/kg.

For `CCC(CC)C(c1ccc(NC(=O)c2ccc(OC)c(OC)c2)cc1)n1cncn1` (racemic) [Compound 6], the IC50 [1] was 1.65 nM and the “LAD (lowest active dose)” value (Ovariectomized rats) was 2.50 mg/kg.

In the case of `CCC(CC)C(c1ccc(NC(=O)Cc2ccc3c(c2)OCCO3)cc1)n1cncn1` (racemic) [Compound 7], the IC50 [1] is reported as 0.79 nM and the “LAD (lowest active dose)” value (Ovariectomized rats) is reported as over 2.50 mg/kg.

`CCC(CC)C(c1ccc(NC(=O)CCc2ccc(OC)c(OC)c2)cc1)n1cncn1` (racemic) [Compound 10] was tested, and the IC50 [1] was 1.55 nM and the “LAD (lowest active dose)” value (Ovariectomized rats) was 2.50 mg/kg.

In the case of `CCC(CC)C(c1ccc(NC(=O)C(O)c2ccc(Cl)cc2)cc1)n1cncn1` (racemic) [Compound 18, (±)-(A2)-4-chloro-N-[4-[2-ethyl)-1-(1H-1,2,4-triazol-1-yl)butyl]phenyl]-α-hydroxybenzeneacetamide], the IC50 [1] is reported as 0.872 nM and the “LAD (lowest active dose)” value (Ovariectomized rats) is reported as 2.50 mg/kg.

In the case of `CCC(CC)C(c1ccc(NC(=O)c2ccccc2)cc1)n1ccnc1` (racemic) [Compound 22], the IC50 [1] is reported as 1.04 nM and the “LAD (lowest active dose)” value (Ovariectomized rats) is reported as 2.50 mg/kg.

`CCC(CC)C(c1ccc(NC(=O)C(C)(C)O)cc1)n1ccnc1` (racemic) [Compound 24] was tested, and the IC50 [1] was 1.37 nM and the “LAD (lowest active dose)” value (Ovariectomized rats) was 2.50 mg/kg.

For `CCC(CC)C(c1ccc(NC(=O)C2=COc3ccccc3O2)cc1)n1ccnc1` (racemic) [Compound 25], the IC50 [1] was 61 nM and the “LAD (lowest active dose)” value (Ovariectomized rats) was 10.00 mg/kg.

For `CCC(CC)C(c1ccc(NC(=O)c2cnccn2)cc1)n1ccnc1` (racemic) [Compound 27], the IC50 [1] was 0.232 nM and the “LAD (lowest active dose)” value (Ovariectomized rats) was 5.00 mg/kg.

In the case of `CCC(CC)C(c1ccc(NC(=O)Cc2ccc3c(c2)OCO3)cc1)n1ccnc1` (racemic) [Compound 28], the IC50 [1] is reported as 2.76 nM and the “LAD (lowest active dose)” value (Ovariectomized rats) is reported as 2.50 mg/kg.

For `CCC(CC)C(c1ccc(NC(=O)c2ccc3c(c2)C(C)(C)CCC3(C)C)cc1)n1ccnc1` (racemic) [Compound 30], the IC50 [1] was 25.8 nM and the “LAD (lowest active dose)” value (Ovariectomized rats) was over 5.00 mg/kg.

For `CCC(CC)C(c1ccc(NC(=O)C2=Cc3ccccc3OC2)cc1)n1ccnc1` (racemic) [Compound 31], the IC50 [1] was 2.63 nM and the “LAD (lowest active dose)” value (Ovariectomized rats) was 5.00 mg/kg.

For `CCC(CC)C(c1ccc(NC(=O)CCc2ccc(OC)c(OC)c2)cc1)n1ccnc1` (racemic) [Compound 32], the IC50 [1] was 0.697 nM and the “LAD (lowest active dose)” value (Ovariectomized rats) was 5.00 mg/kg.

With `CCOc1ccc(C(=O)Nc2ccc(C(C(CC)CC)n3ccnc3)cc2)cc1` (racemic) [Compound 35] the IC50 [1] was 2.24 nM and the “LAD (lowest active dose)” value (Ovariectomized rats) was 2.50 mg/kg.

`CCCCCC(C)C(c1ccc(NC(=O)/C(C)=C/c2ccccc2)cc1)n1ccnc1` (single isomer, unassigned) [Compound 488] was tested, and the IC50 [1] was over 100 nM.

For `CCC(CC)C(c1ccc(NC(C)=O)cc1)n1cncn1` (stereo not shown) [Compound 1], the IC50 [1] was 0.138 nM.

`CCC(CC)C(c1ccc(NC(=O)C(O)c2ccc(Cl)cc2)cc1)n1ccnc1` (stereo not shown) [Compound 54] was tested, and the IC50 [1] was 4.86 nM.

With `CC(C)C(c1ccc(NC(=O)Cc2ccc(N)cc2)cc1)n1ccnc1` (stereo not shown) [Compound 145, (A)-4-amino-N-[4-[1-(1H-imidazol-1-yl)-2-methylpropyl]phenyl]benzeneacetamide] the IC50 [1] was 3.03 nM.

`CC(C)C(c1ccc(NC(=O)Cc2ccc(N=[N+]=[N-])c(I)c2)cc1)n1ccnc1` (stereo not shown) [Compound 259, (B)-4-azido-N-[4-[1-(1H-imidazol-1-yl)-2-methylpropyl]phenyl]-3-iodobenzenacetamide] gave an IC50 [1] of 9.29 nM.

In the case of `CC(=O)Nc1ccc(C(c2cccc(F)c2)n2cncn2)cc1` (stereo not shown) [Compound 616], the IC50 [1] is reported as over 1000 nM.

In the case of `C/C(=C\c1ccccc1)C(=O)Nc1ccc(C(c2cccc(F)c2)n2cncn2)cc1` (stereo not shown) [Compound 620], the IC50 [1] is reported as over 1000 nM.

`CC(C)C(c1ccc(NC(=O)Nc2cccc(F)c2)cc1)c1ccccn1` (stereo not shown) [Compound 691] gave an IC50 [1] of over 100 nM.

In the case of `CC(C)C(c1ccc(NC(=N)Nc2cccc(F)c2)cc1)n1ccnc1` (stereo not shown) [Compound 744, N′-(3-fluorophenyl)-N-[4-[1-(1H-imidazol-1-yl)-2-methylpropyl]phenyl]guanidine], the IC50 ([1]; MCF7) is reported as over 100 nM.

`CCC(CC)C(c1ccc(NC(=O)Cc2cccc(O)c2)cc1)n1ccnc1` (stereo not shown) [Compound 780, (A)-N-[4-[2-ethyl-1-(1H-imidazol-1-yl)butyl]phenyl]-3-hydroxybenzeneacetamide ethanedioate (1:1)] was tested, and the IC50 [1] was 4.57 nM.

With `CCC(CC)C(c1ccc(NC(=O)Cc2cccc(O)c2)cc1)n1ccnc1` (stereo not shown) [Compound 781, (B)-N-[4-[2-ethyl-1-(1H-imidazol-1-yl)butyl]phenyl]-3-hydroxy-benzeneacetamide ethanedioate (1:1)] the IC50 [1] was 3.24 nM.
